In patent US7351709B2, “Estrogen receptor ligands” (Wyeth, priority 2004, dated 2008):

Key:
[1] = target: T1, ERα (Homo sapiens, UniProt P03372); assay: Creatine kinase (CK) assay in ERα infected HAECT-1 cells; format: cell-based; settings: for EC50: Ad5-wt-ER infected HAECT-1 cells, creatine kinase in cell lysate; for ER/CK % E2: efficacy relative to the maximal stimulation observed with E2
T1 construct: expressed in transfected cells; host or cells: HAECT-1 cells infected with Ad5-wt-ER adenovirus
T1 sequence (P03372 1-595): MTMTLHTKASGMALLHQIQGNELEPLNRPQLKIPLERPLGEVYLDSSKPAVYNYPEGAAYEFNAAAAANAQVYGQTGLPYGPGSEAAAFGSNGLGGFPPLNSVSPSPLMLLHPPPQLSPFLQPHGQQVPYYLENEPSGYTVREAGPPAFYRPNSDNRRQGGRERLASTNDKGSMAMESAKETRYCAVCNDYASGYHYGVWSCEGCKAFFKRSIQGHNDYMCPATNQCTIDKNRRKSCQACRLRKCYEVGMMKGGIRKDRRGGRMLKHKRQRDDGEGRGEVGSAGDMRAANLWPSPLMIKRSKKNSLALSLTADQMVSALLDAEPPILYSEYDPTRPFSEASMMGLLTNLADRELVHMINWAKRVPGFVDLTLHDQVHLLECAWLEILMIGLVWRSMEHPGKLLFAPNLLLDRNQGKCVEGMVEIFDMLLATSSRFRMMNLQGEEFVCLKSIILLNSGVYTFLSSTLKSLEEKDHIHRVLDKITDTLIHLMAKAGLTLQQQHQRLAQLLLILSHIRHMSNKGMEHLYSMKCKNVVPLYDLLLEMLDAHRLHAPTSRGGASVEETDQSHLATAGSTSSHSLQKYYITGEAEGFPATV
Method: (§1) ERα infected HAECT-1 cells or control cells were thawed, diluted 42× in warm EBM-BSA, plated into 96-well plates at 0.1 ml/well and incubated for 4 h at 34° C. Test compounds were added to the cells as 2× stocks in EBM-BSA containing 2 ng/ml IL-1β (R&D Systems) and plates were returned to the incubator (34° C.). After 15-20 h, 100 μl aliquots of media were removed from the cells and assayed for IL-6 content using a BioSource human IL-6 ELISA Kit. Cells were subsequently washed with 300 μl of Dulbecco's phosphate buffered saline and lysed in 50 μl of Cell Culture Lysis Reagent (Promega). Creatine kinase was determined from the rate of increase in A340 following addition of 100 μl of CK assay reagent (Sigma, cat. No 47-10) to the remainder of the cell lysate.
(§2) For IC50 and EC50 calculations, mean IL-6 or CK values versus log10 of the compound concentration were fitted to a four parameter logistic equation. The IC50/EC50 value, ‘Hill slope’, upper and lower limits of the curve were iteratively estimated.

[2] = target: T1, ERα; assay: IL-6 assay: inhibition of IL-1β induced IL-6 expression in ERα infected HAECT-1 cells; format: cell-based; settings: for IC50: Ad5-wt-ER infected HAECT-1 cells, IL-1β stimulated, IL-6 by ELISA; for ER/IL-6 % E2: efficacy relative to the maximal inhibition observed with E2
Method: as §1, §2

| Structure (SMILES) | EC50 [1] | ER/CK % E2 [1] | IC50 [2] | ER/IL-6 % E2 [2] |
| --- | --- | --- | --- | --- |
| C=CCN1C(=O)[C@H](CC)N(S(=O)(=O)c2ccc(O)cc2)c2cc(F)ccc21 [Example 22, (3S)-1-Allyl-3-ethyl-6-fluoro-4-[(4-hydroxyphenyl)sulfonyl]-3,4-dihydroquinoxalin-2(1H)-one] |  |  | 5600 nM | 55 % E2 |
| CC[C@@H]1C(=O)N(C)c2ccc(F)cc2N1C(=O)c1ccc(O)cc1 [Example 15, (3R)-3-Ethyl-6-fluoro-4-(4-hydroxybenzoyl)-1-methyl-3,4-dihydroquinoxalin-2(1H)-one] |  |  | 102 nM | 84 % E2 |
| CCCN1C(=O)[C@H](CC)N(S(=O)(=O)c2ccc(O)cc2)c2cc(F)ccc21 [Example 20, (3S)-3-Ethyl-6-fluoro-4-[(4-hydroxyphenyl)sulfonyl]-1-propyl-3,4-dihydroquinoxalin-2(1H)-one] |  |  | 157 nM | 79 % E2 |
| CC[C@@H]1C(=O)N(C(C)C)c2ccc(F)cc2N1C(=O)c1ccc(O)cc1 [Example 11, (3R)-3-Ethyl-6-fluoro-4-(4-hydroxybenzoyl)-1-isopropyl-3,4-dihydroquinoxalin-2(1H)-one] |  |  | 105 nM | 91 % E2 |
| CC[C@@H]1C(=O)N(CC)c2ccc(F)cc2N1C(=O)c1ccc(O)cc1O [Example 18, (3R)-4-(2,4-Dihydroxybenzoyl)-1,3-diethyl-6-fluoro-3,4-dihydroquinoxalin-2(1H)-one] | 169 nM | 36 % E2 | 20 nM | 96 % E2 |
| CCCN1C(=O)[C@@H](CC)N(C(=O)c2ccc(O)cc2)c2cc(F)ccc21 [Example 9, (3R)-3-Ethyl-6-fluoro-4-(4-hydroxybenzoyl)-1-propyl-3,4-dihydroquinoxalin-2(1H)-one] |  |  | 222 nM | 96 % E2 |
| CC[C@H]1C(=O)N(CC)c2ccc(F)cc2N1C(=O)c1ccc(O)cc1 [Example 6, (3S)-1,3-Diethyl-6-fluoro-4-(4-hydroxybenzoyl)-3,4-dihydroquinoxalin-2(1H)-one] |  |  | 285 nM | 44 % E2 |
| CCN1C(=O)[C@H](C)N(S(=O)(=O)c2ccc(O)cc2)c2cc(F)ccc21 [Example 21, (3S)-1-Ethyl-6-fluoro-4-[(4-hydroxyphenyl)sulfonyl]-3-methyl-3,4-dihydroquinoxalin-2(1H)-one] |  |  | 181 nM | 56 % E2 |
| CCCCN1C(=O)[C@H](CC)N(S(=O)(=O)c2ccc(O)cc2)c2cc(F)ccc21 [Example 23, (3S)-1-Butyl-3-ethyl-6-fluoro-4-[(4-hydroxyphenyl)sulfonyl]-3,4-dihydroquinoxalin-2(1H)-one] |  |  | 313 nM | 106 % E2 |
| CC[C@@H]1C(=O)N(C2CCCC2)c2ccc(F)cc2N1C(=O)c1ccc(O)cc1 [Example 17, (3R)-1-Cyclopentyl-3-ethyl-6-fluoro-4-(4-hydroxybenzoyl)-3,4-dihydroquinoxalin-2(1H)-one] |  |  | 445 nM | 96 % E2 |
| C=CCN1C(=O)[C@@H](CC)N(C(=O)c2ccc(O)cc2)c2cc(F)ccc21 [Example 10, (3R)-1-Allyl-3-ethyl-6-fluoro-4-(4-hydroxybenzoyl)-3,4-dihydroquinoxalin-2(1H)-one] |  |  | 57 nM | 95 % E2 |
| CCCCCN1C(=O)[C@@H](CC)N(C(=O)c2ccc(O)cc2)c2cc(F)ccc21 [Example 13, (3R)-3-Ethyl-6-fluoro-4-(4-hydroxybenzoyl)-1-pentyl-3,4-dihydroquinoxalin-2(1H)-one] |  |  | 89 nM | 102 % E2 |
| CCCCN1C(=O)[C@@H](CC)N(C(=O)c2ccc(O)cc2)c2cc(F)ccc21 [Example 12, (3R)-1-Butyl-3-ethyl-6-fluoro-4-(4-hydroxybenzoyl)-3,4-dihydroquinoxalin-2(1H)-one] |  |  | 52 nM | 95 % E2 |
| CC[C@@H]1C(=O)N(CC(F)(F)F)c2ccc(F)cc2N1C(=O)c1ccc(O)cc1 [Example 16, (3R)-3-Ethyl-6-fluoro-4-(4-hydroxybenzoyl)-1-(2,2,2-trifluoroethyl)-3,4-dihydroquinoxalin-2(1H)-one] |  |  | 204 nM | 83 % E2 |
| CC[C@@H]1C(=O)N(CC(C)C)c2ccc(F)cc2N1C(=O)c1ccc(O)cc1 [Example 14, (3R)-3-Ethyl-6-fluoro-4-(4-hydroxybenzoyl)-1-isobutyl-3,4-dihydroquinoxalin-2(1H)-one] |  |  | 262 nM | 87 % E2 |
| CC[C@@H]1C(=O)N(CC)c2ccc(F)cc2N1C(=O)c1ccc(O)cc1 [Example 8, (3R)-1,3-Diethyl-6-fluoro-4-(4-hydroxybenzoyl)-3,4-dihydroquinoxalin-2(1H)-one] |  |  | 139 nM | 99 % E2 |
| CC[C@H]1C(=O)N(C)c2ccc(F)cc2N1C(=O)c1ccc(O)cc1 [Example 7, (3S)-3-Ethyl-6-fluoro-4-(4-hydroxybenzoyl)-1-methyl-3,4-dihydroquinoxalin-2(1H)-one] |  |  | 303 nM | 44 % E2 |

Next, values leading:

| EC50 [1] | ER/CK % E2 [1] | IC50 [2] | ER/IL-6 % E2 [2] | Structure (SMILES) |
| --- | --- | --- | --- | --- |
| 43 nM | 9 % E2 | 738 nM | 63 % E2 | CC[C@H]1C(=O)N(CC)c2cc(F)ccc2N1S(=O)(=O)c1ccc(O)cc1 [Example 30, (3S)-1,3-Diethyl-7-fluoro-4-[(4-hydroxyphenyl)sulfonyl]-3,4-dihydroquinoxalin-2(1H)-one] |
|  |  | 413 nM | 92 % E2 | CC[C@H]1C(=O)N(CC)c2ccc(Br)cc2N1S(=O)(=O)c1ccc(O)cc1 [Example 33, (3S)-6-bromo-1,3-diethyl-4-[(4-hydroxyphenyl)sulfonyl]-3,4-dihydroquinoxalin-2(1H)-one] |
|  |  | 1570 nM | 71 % E2 | CC[C@H]1C(=O)N(CC)c2cc(Br)ccc2N1S(=O)(=O)c1ccc(O)cc1 [Example 31, (3S)-7-Bromo-1,3-diethyl-4-[(4-hydroxyphenyl)sulfonyl]-3,4-dihydroquinoxalin-2(1H)-one] |
|  |  | 447 nM | 63 % E2 | CC[C@H]1C(=O)N(CC)c2ccc(C)cc2N1S(=O)(=O)c1ccc(O)cc1 [Example 27, (3S)-1,3-diethyl-4-[(4-hydroxyphenyl)sulfonyl]-6-methyl-3,4-dihydroquinoxalin-2(1H)-one] |
|  |  | 296 nM | 92 % E2 | CC[C@H]1C(=O)N(C)c2ccc(C)cc2N1S(=O)(=O)c1ccc(O)cc1 [Example 28, (3S)-3-Ethyl-4-[(4-hydroxyphenyl)sulfonyl]-1,6-dimethyl-3,4-dihydroquinoxalin-2(1H)-one] |
|  |  | 429 nM | 90 % E2 | CC[C@H]1C(=O)N(C)c2cc(Br)ccc2N1S(=O)(=O)c1ccc(O)cc1 [Example 32, (3S)-7-bromo-3-ethyl-4-[(4-hydroxyphenyl)sulfonyl]-1-methyl-3,4-dihydroquinoxalin-2(1H)-one] |
|  |  | 258 nM | 128 % E2 | CC[C@H]1C(=O)N(C)c2ccc(Br)cc2N1S(=O)(=O)c1ccc(O)cc1 [Example 34, (3S)-6-bromo-3-ethyl-4-[(4-hydroxyphenyl)sulfonyl]-1-methyl-3,4-dihydroquinoxalin-2(1H)-one] |
|  |  | 534 nM | 40 % E2 | CC[C@H]1C(=O)N(Cc2ccccc2)c2ccc(F)cc2N1S(=O)(=O)c1ccc(O)cc1 [Example 24, (3S)-1-benzyl-3-ethyl-6-fluoro-4-[(4-hydroxyphenyl)sulfonyl]-3,4-dihydroquinoxalin-2(1H)-one] |
